Source: patent publication US20020155518A1, “Method of detecting compounds that control fungal diseases via effects on sporulation” (priority 2000, published 2002)

Experiments:
[1] = tested on: Apple Scab (Venturia inaequalis); experiment: Protectant foliar spray test against apple scab; assay type: in vivo; note: key: '+++' =high control; '++' =moderate control; '+' =low control; '0'=no control
[2] = tested on: Rice Blast (Magnaporthe grisea); assay type: in vivo; details: foliar spray before inoculation, vs untreated inoculated controls
[3] = tested on: Leptosphaeria (Septoria) nodorum; experiment: Protectant foliar spray test against wheat L. nodorum blotch; assay type: in vivo; note: key: '+++' =high control; '++' =moderate control; '+' =low control; '0'=no control
[4] = tested on: Wheat Powdery Mildew (Blumeria [Erysiphe] graminis f.sp. tritici); details: in vivo; note: key: '+++' =high control; '++' =moderate control; '+' =low control; '0'=no control
[5] = apple seedlings, foliar spray before inoculation, vs untreated inoculated controls
[6] = wheat, foliar spray before inoculation, vs untreated inoculated controls

Compound | Level of Plant Disease Control, Apple Scab [1, 5] | Level of Plant Disease Control, Rice Blast [2] | Level of Plant Disease Control, Wheat L. nodorum [3, 6] | Level of Plant Disease Control, Wheat Powdery Mildew [4] | Level of Plant Disease Control, Apple Scab ([1]; in vivo) | Level of Plant Disease Control, Wheat L. nodorum ([3]; in vivo)
COc1cc(C)c(C(=O)c2c(OC)ccc(Cl)c2C)c(OC)c1OC [R, (3-chloro-6-methoxy-2-methylphenyl)(2,3,4-trimethoxy-6-methylphenyl)methanone] | 0 | ++ | 0 | +++ |  | 
COc1cc(C)c(C(=O)c2c(C)cccc2C)c(OC)c1OC [L, (2,6-dimethylphenyl)(2,3,4-trimethoxy-6-methylphenyl)methanone] | 0 | 0 | 0 | +++ |  | 
CCCOc1c(OC)cc(C)c(C(=O)c2c(OC)ccc(Br)c2C)c1OCc1ccc(C(F)(F)F)cc1 [CC, (3-bromo-6-methoxy-2-methylphenyl)[4-methoxy-6-methyl-3-propoxy-2-[[4-(trifluoromethyl)phenyl]methoxy]phenyl]methanone] | 0 | 0 | 0 | +++ |  | 
COc1cc(C)c(C(=O)c2c(C)cccc2OC)c(OC)c1OC [G, (2-methoxy-6-methylphenyl)(2,3,4-trimethoxy-6-methylphenyl)methanone] | 0 | 0 | 0 | +++ |  | 
COc1cc(C)c(C(=O)c2c(C)ccc3ccccc23)c(OCc2ccccc2F)c1OC [X, [3,4-dimethoxy-6-methyl-2-[(2-fluorophenyl)methoxy]phenyl](2-methyl-1-naphthalenyl)methanone] | 0 | 0 | 0 | +++ |  | 
COc1cc(C)c(C(=O)c2c(Cl)cccc2Cl)c(OCc2ccc(F)cc2)c1OC [D, (2,6-dichlorophenyl)[2-[(4-fluorophenyl)methoxy]-3,4-dimethoxy-6-methylphenyl]methanone] |  |  |  | +++ |  | 
COc1cc(C)c(C(=O)c2c(OC)ccc(Br)c2C)c(OC)c1OC [M, (3-bromo-6-methoxy-2-methylphenyl)(2,3,4-trimethoxy-6-methylphenyl)methanone] |  | 0 |  | +++ | +++ | 0
COc1cc(C)c(C(=O)c2c(C)ccc3ccccc23)c(OC)c1OC [F, (2,3,4-trimethoxy-6-methylphenyl)(2-methyl-1-naphthalenyl)methanone] | 0 | ++ | 0 | +++ |  | 
CCCC(C)Oc1cc(C)c(C(=O)c2c(Cl)cccc2Cl)cc1OC (stereo not drawn) [U, (2,6-dichlorophenyl)[5-methoxy-2-methyl-4-(1-methylbutoxy)phenyl]methanone] | 0 | ++ | +++ | ++ |  | 
CCCCCOc1c(OC)cc(C)c(C(=O)c2c(OC)ccc(C)c2Cl)c1OC [P, (2-chloro-6-methoxy-3-methylphenyl)[2,4-dimethoxy-6-methyl-3-(pentyloxy)phenyl]methanone] | 0 | ++ | 0 | +++ |  | 
CCC(=O)Oc1c(OC)c(OC)cc(C)c1C(=O)c1c(Cl)cccc1Cl [W, (2,6-dichlorophenyl)[3,4-dimethoxy-6-methyl-2-(1-oxopropoxy)phenyl]methanone] | +++ | +++ | 0 | +++ |  | 
COc1cc(C)c(C(=O)c2c(C)cccc2C)c(OCc2cccc(C)c2)c1OC [Compound E, [3,4-dimethoxy-6-methyl-2-[(3-methylphenyl)methoxy]phenyl](2,6-dimethylphenyl)methanone] |  |  |  | +++ |  | 
COc1cc(C)c(C(=O)c2c(Cl)cccc2OC)c(OCc2cccc(C)c2)c1OC [I, (2-chloro-6-methoxyphenyl)[3,4-dimethoxy-6-methyl-2-[(3-methylphenyl)methoxy]phenyl]methanone] | ++ | + | 0 | +++ |  | 
COc1cc(C)c(C(=O)c2c(C)cccc2C)c(OCc2c(F)cc(F)cc2F)c1OC [H, [3,4-dimethoxy-6-methyl-2-[(2,4,6-trifluorophenyl)methoxy]phenyl](2,6-dimethylphenyl)methanone] | 0 | 0 | 0 | +++ |  | 
CCCOc1c(OC)cc(C)c(C(=O)c2c(OC)ccc(Br)c2C)c1OCc1ccccc1 [Y, (3-bromo-6-methoxy-2-methylphenyl)[4-methoxy-6-methyl-2-(phenylmethoxy)-3-propoxyphenyl]methanone] | 0 | 0 | 0 | +++ |  | 
COc1cc(C)c(C(=O)c2c(C)cccc2C)c(OCc2ccccc2)c1OC [O, [3,4-dimethoxy-6-methyl-2-(phenylmethoxy)phenyl](2,6-dimethylphenyl)methanone] | 0 | ++ | 0 | +++ |  | 
COc1cc(C)c(C(=O)c2c(OC)ccc(Br)c2C)c(OCc2ccccc2C)c1OC [AA, (3-bromo-6-methoxy-2-methyiphenyl)[3,4-dimethoxy-6-methyl-2-[(2-methylphenyl)methoxy]phenyl]methanone] | 0 | 0 | 0 | +++ |  | 
COc1cc(C)c(C(=O)c2c(OC)ccc(Br)c2C)c(OCc2ccccc2F)c1OC [C, (3-bromo-6-methoxy-2-methylphenyl)[3,4-dimethoxy-6-methyl-2-[(2-fluorophenyl)methoxy]phenyl]methanone] | 0 | ++ |  | +++ |  | 
CCCCOc1c(OC)cc(C)c(C(=O)c2c(Cl)cccc2Cl)c1OCCCC [B, (2,3-dibutoxy-4-methoxy-6-methylphenyl)(2,6-dichlorophenyl)methanone] | 0 | 0 | 0 | +++ |  | 
COc1cc(C(=O)c2c(Cl)cccc2Cl)c(C)cc1OC1CCCC1 [K, [4-(cyclopentyloxy)-5-methoxy-2-methylphenyl](2,6-dichlorophenyl)methanone] |  | 0 | +++ | 0 |  | 
COc1cc(C)c(C(=O)c2c(OC)ccc(Br)c2C)c(OCc2cccc(C)c2)c1OC [Compound S, (3-bromo-6-methoxy-2-methylphenyl)[3,4-dimethoxy-6-methyl-2-[(3-methylphenyl)methoxy]phenyl]methanone] |  |  |  | +++ |  | 
COc1cc(C)c(C(=O)c2c(OC)ccc(Br)c2Cl)c(OC)c1OC [J, (3-bromo-2-chloro-6-methoxyphenyl)(2,3,4-trimethoxy-6-methylphenyl)methanone] | + | 0 | 0 | +++ |  | 
COc1cc(C)c(C(=O)c2c(Cl)cccc2Cl)c(OCc2ccccc2F)c1OC [V, (2,6-dichlorophenyl)[2-[(2-fluorophenyl)methoxy]-3,4-dimethoxy-6-methylphenyl]methanone] | 0 | ++ | 0 | +++ |  | 
CCCOc1c(OC)cc(C)c(C(=O)c2c(OC)ccc(Br)c2C)c1OCc1ccc(C(C)(C)C)cc1 [BB, (3-bromo-6-methoxy-2-methylphenyl)[4-methoxy-6-methyl-3-propoxy-2-[[4-(1,1-dimethylethyl)phenyl]methoxy]phenyl]methanone] | 0 | 0 | 0 | +++ |  | 
CCCOc1c(OC)cc(C)c(C(=O)c2c(OC)ccc(Cl)c2C)c1O [DD, (3-chloro-6-methoxy-2-methylphenyl)(2-hydroxy-4-methoxy-6-methyl-3-propoxyphenyl)methanone] | 0 | 0 | 0 | +++ |  | 
COc1cc(C)c(C(=O)c2c(OC)ccc(Br)c2C)c(OCc2ccc(Cl)cc2)c1OC [EE, (3-bromo-6-methoxy-2-methylphenyl)[3,4-dimethoxy-6-methyl-2-[(4-chlorophenyl)methoxy]phenyl]methanone] | 0 | 0 | 0 | +++ |  | 
